Results from PubChem BioAssay AID1963863 (Molecular Pharmacology Branch, DTP, NCI, 2024).

Test system: 931267-113-T-J1-PDC KRAS spheroid with HUVEC/MSC, viability
Assay: Anticancer human tumor 931267-113-T-J1-PDC patient-derived colon adenocarcinoma cell line growth inhibition [KRAS2]
Settings: for IC50: curve of first compound; for viability, T/C: stronger effect = lower value
How it was run: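 KRAS-mutant tumor cells were grown as spheroids with HUVEC endothelial cells and human MSCs as stroma. Targeted agents were tested alone and with KRAS pathway inhibitors. Doses started at or near clinical Cmax, or 10 microM, descending half-log.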

[1] = second compound 0.1 µM, first compound 0.000316 µM
[2] = second compound 0.1 µM, first compound 0.001 µM
[3] = second compound 0.1 µM, first compound 0.00316 µM
[4] = second compound 0.1 µM, first compound 0.01 µM
[5] = second compound 0.1 µM, first compound 0.0316 µM
[6] = second compound 0.316 µM, first compound 0.000316 µM
[7] = second compound 0.316 µM, first compound 0.001 µM
[8] = second compound 0.316 µM, first compound 0.00316 µM
[9] = second compound 0.316 µM, first compound 0.01 µM
[10] = second compound 0.316 µM, first compound 0.0316 µM
[11] = second compound 1 µM, first compound 0.000316 µM
[12] = second compound 1 µM, first compound 0.001 µM
[13] = second compound 1 µM, first compound 0.00316 µM
[14] = second compound 1 µM, first compound 0.01 µM
[15] = second compound 1 µM, first compound 0.0316 µM
[16] = second compound 3.16 µM, first compound 0.000316 µM
[17] = second compound 3.16 µM, first compound 0.001 µM
[18] = second compound 3.16 µM, first compound 0.00316 µM
[19] = second compound 3.16 µM, first compound 0.01 µM
[20] = second compound 3.16 µM, first compound 0.0316 µM
[21] = second compound 10 µM, first compound 0.000316 µM
[22] = second compound 10 µM, first compound 0.001 µM
[23] = second compound 10 µM, first compound 0.00316 µM
[24] = second compound 10 µM, first compound 0.01 µM
[25] = second compound 10 µM, first compound 0.0316 µM
[26] = second compound 0.1 µM, first compound 0.1 µM
[27] = second compound 0.316 µM, first compound 0.1 µM
[28] = second compound 1 µM, first compound 0.1 µM
[29] = second compound 3.16 µM, first compound 0.1 µM
[30] = second compound 10 µM, first compound 0.1 µM
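Note: compound exposure lasted 7 days before the readout.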
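Throughout, for viability, T/C: 100% = DMSO vehicle control viability.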

## CC(=O)Nc1cccc(-n2c(=O)n(C3CC3)c(=O)c3c(Nc4ccc(I)cc4F)n(C)c(=O)c(C)c32)c1 + COc1cc2nc(C)nc(NC(C)c3cc(N)cc(C(F)(F)F)c3)c2cc1OC1CCOC1
Second compound 0.1 µM
  IC50: 10.3 nM
Second compound 0.316 µM
  IC50: 5.76 nM
Second compound 1 µM
  IC50: 9.82 nM
Second compound 3.16 µM
  IC50: 7.73 nM
Second compound 10 µM
  IC50: < 0.1 nM
Second compound 0.1 µM, first compound 0.0001 µM
  viability, T/C: 75.8%
[1]
  viability, T/C: 75.3%
[2]
  viability, T/C: 77.1%
[3]
  viability, T/C: 72.5%
[4]
  viability, T/C: 51%
[5]
  viability, T/C: 15.7%
Second compound 0.316 µM, first compound 0.0001 µM
  viability, T/C: 76.9%
[6]
  viability, T/C: 60.6%
[7]
  viability, T/C: 64.8%
[8]
  viability, T/C: 51.3%
[9]
  viability, T/C: 50%
[10]
  viability, T/C: 13.7%
Second compound 1 µM, first compound 0.0001 µM
  viability, T/C: 87%
[11]
  viability, T/C: 71.7%
[12]
  viability, T/C: 73.8%
[13]
  viability, T/C: 66.1%
[14]
  viability, T/C: 52.1%
[15]
  viability, T/C: 14.1%
Second compound 3.16 µM, first compound 0.0001 µM
  viability, T/C: 91.3%
[16]
  viability, T/C: 82.1%
[17]
  viability, T/C: 75.1%
[18]
  viability, T/C: 59.5%
[19]
  viability, T/C: 52%
[20]
  viability, T/C: 19.6%
Second compound 10 µM, first compound 0.0001 µM
  viability, T/C: 21.4%
[21]
  viability, T/C: 37.6%
[22]
  viability, T/C: 20.4%
[23]
  viability, T/C: 2.31%
[24]
  viability, T/C: 14.3%
[25]
  viability, T/C: 1.54%

## CC(C)n1nc(-c2ccc3oc(N)nc3c2)c2c(N)ncnc21 + COc1cc2nc(C)nc(NC(C)c3cc(N)cc(C(F)(F)F)c3)c2cc1OC1CCOC1
Second compound 0.1 µM
  IC50: 9.26 nM
Second compound 0.316 µM
  IC50: 7.45 nM
Second compound 1 µM
  IC50: 9.33 nM
Second compound 3.16 µM
  IC50: 6.56 nM
Second compound 10 µM
  IC50: < 0.316 nM
[1]
  viability, T/C: 109%
[2]
  viability, T/C: 92.5%
[3]
  viability, T/C: 69%
[4]
  viability, T/C: 50.5%
[5]
  viability, T/C: 31.1%
[26]
  viability, T/C: 24.9%
[6]
  viability, T/C: 108%
[7]
  viability, T/C: 91.7%
[8]
  viability, T/C: 77.3%
[9]
  viability, T/C: 39.1%
[10]
  viability, T/C: 28.1%
[27]
  viability, T/C: 24.2%
[11]
  viability, T/C: 84.5%
[12]
  viability, T/C: 101%
[13]
  viability, T/C: 65.9%
[14]
  viability, T/C: 51.7%
[15]
  viability, T/C: 30.9%
[28]
  viability, T/C: 23.9%
[16]
  viability, T/C: 79%
[17]
  viability, T/C: 75.8%
[18]
  viability, T/C: 63.7%
[19]
  viability, T/C: 41.9%
[20]
  viability, T/C: 28.6%
[29]
  viability, T/C: 23.6%
[21]
  viability, T/C: 1.37%
[22]
  viability, T/C: 1.1%
[23]
  viability, T/C: 6.43%
[24]
  viability, T/C: 3.9%
[25]
  viability, T/C: 2.74%
[30]
  viability, T/C: 1.79%

## CC1(C)CCC(CN2CCN(c3ccc(C(=O)NS(=O)(=O)c4ccc(NCC5CCOCC5)c([N+](=O)[O-])c4)c(Oc4cnc5[nH]ccc5c4)c3)CC2)=C(c2ccc(Cl)cc2)C1 + COc1cc2nc(C)nc(NC(C)c3cc(N)cc(C(F)(F)F)c3)c2cc1OC1CCOC1
Second compound 0.1 µM
  IC50: 2100 nM
Second compound 0.316 µM
  IC50: 1950 nM
Second compound 1 µM
  IC50: 1820 nM
Second compound 3.16 µM
  IC50: 1650 nM
Second compound 10 µM
  IC50: < 31.6 nM
[5]
  viability, T/C: 89%
[26]
  viability, T/C: 88.1%
Second compound 0.1 µM, first compound 0.316 µM
  viability, T/C: 90.1%
Second compound 0.1 µM, first compound 1 µM
  viability, T/C: 95.8%
Second compound 0.1 µM, first compound 3.16 µM
  viability, T/C: 27.7%
Second compound 0.1 µM, first compound 10 µM
  viability, T/C: 8.52%
[10]
  viability, T/C: 86.2%
[27]
  viability, T/C: 90.3%
Second compound 0.316 µM, first compound 0.316 µM
  viability, T/C: 84%
Second compound 0.316 µM, first compound 1 µM
  viability, T/C: 83%
Second compound 0.316 µM, first compound 3.16 µM
  viability, T/C: 26.3%
Second compound 0.316 µM, first compound 10 µM
  viability, T/C: 5.92%
[15]
  viability, T/C: 76.5%
[28]
  viability, T/C: 93.4%
Second compound 1 µM, first compound 0.316 µM
  viability, T/C: 76.1%
Second compound 1 µM, first compound 1 µM
  viability, T/C: 84.9%
Second compound 1 µM, first compound 3.16 µM
  viability, T/C: 19.6%
Second compound 1 µM, first compound 10 µM
  viability, T/C: 2.71%
[20]
  viability, T/C: 61.9%
[29]
  viability, T/C: 86.5%
Second compound 3.16 µM, first compound 0.316 µM
  viability, T/C: 60.2%
Second compound 3.16 µM, first compound 1 µM
  viability, T/C: 69.8%
Second compound 3.16 µM, first compound 3.16 µM
  viability, T/C: 24.3%
Second compound 3.16 µM, first compound 10 µM
  viability, T/C: 4.36%
[25]
  viability, T/C: 0.9%
[30]
  viability, T/C: 2.22%
Second compound 10 µM, first compound 0.316 µM
  viability, T/C: 0.8%
Second compound 10 µM, first compound 1 µM
  viability, T/C: 1.14%
Second compound 10 µM, first compound 3.16 µM
  viability, T/C: 2.02%
Second compound 10 µM, first compound 10 µM
  viability, T/C: 0.84%
